Some test systems named below: 786-0; RPMI-8226; OVCAR-8; NCI/ADR-RES; NCI-H23; HOP-62; SK-OV-3; TK-10; K562; RXF 393; CAKI-1; MDA-N; SN12C; HCT-116; SF-295; NCI-H226; SF-539; IGROV-1; MDA-MB-435; SR.
Holding throughout (assay): growth of human tumour cells (NCI), 48 h

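Test compounds were applied to cells in 96-well plates for 48 hours at 5 doses. Here, GI50 denotes the concentration required for 50% inhibition of growth.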 Activity calls are given as the source filed them. Cut-off read from the data, not from the text of the source: active = GI50 up to about 1.1 µM and inactive = higher. Positions of bridges follow the written chain, without caps; N, C: chain ends. Non-standard residues stand in square brackets, D forms with d. Residues, ends and D or L forms follow the SMILES beside them. *: point of attachment. PhAc = O=C(Cc1ccccc1)*

With `COc1cc2c(cc1OC)-c1cc3ccccc3c(=O)n1CCC2`, the GI50 in the experiment on 786-0 is 6.97 µM (inactive); in the experiment with RPMI-8226, 7.91 µM (inactive); with OVCAR-8, 9.35 µM (inactive); with NCI/ADR-RES it was 5.27 µM (inactive); in the experiment on NCI-H23, 19.7 µM (inactive); with HOP-62, 12 µM (inactive). Besides, the GI50 with SK-OV-3 is 7.31 µM (inactive); in the experiment with TK-10, 16.3 µM (inactive); with K562, 3.21 µM (inactive); in the experiment on RXF 393, 5.02 µM (inactive); in the experiment on CAKI-1, 7.85 µM (inactive); with MDA-N, 3.56 µM (inactive). The GI50 with SN12C was 13.1 µM (inactive); with HCT-116, 3.94 µM (inactive); in the experiment on SF-295, 11.1 µM (inactive); in the experiment with NCI-H226, 12.6 µM (inactive); with SF-539, 2.94 µM (inactive); in the experiment with IGROV-1, 7.48 µM (inactive). Further, the GI50 with MDA-MB-435 was 5.69 µM (inactive).

On to `Cc1cc(Cl)nc(Nc2nc3ccccc3[nH]2)n1`, for which the GI50 with 786-0, with OVCAR-8, in the experiment on NCI/ADR-RES, in the experiment on NCI-H23, in the experiment with HOP-62 and with SK-OV-3 was > 100 µM (inactive) throughout. Also, the GI50 in the experiment with TK-10, in the experiment with K562, in the experiment with RXF 393, in the experiment on MDA-N, in the experiment on SN12C and in the experiment with HCT-116 was > 100 µM (inactive) throughout. Besides, the GI50 with SR was 32.1 µM (inactive); in the experiment on SF-295 it was > 100 µM (inactive); in the experiment with NCI-H226, > 100 µM (inactive); with SF-539 it was > 100 µM (inactive); in the experiment on IGROV-1 it was > 100 µM (inactive); with MDA-MB-435, > 100 µM (inactive).

`COc1ccc(NC(=O)/C(CC2=Nc3ccc([N+](=O)[O-])cc3NC2O)=N\NC(=O)C[N+](C)(C)C)c(OC)c1` (stereo not given): the GI50 in the experiment on 786-0 was 30.1 µM (inactive); in the experiment with OVCAR-8, 30.1 µM (inactive); in the experiment with NCI/ADR-RES, 40.6 µM (inactive); with NCI-H23, 84.3 µM (inactive); in the experiment with HOP-62 it was 22.2 µM (inactive); in the experiment with SK-OV-3, 89.9 µM (inactive). For the same molecule, the GI50 was > 100 µM (inactive) with TK-10; 21.6 µM (inactive) in the experiment on RXF 393; > 100 µM (inactive) with CAKI-1; > 100 µM (inactive) in the experiment on MDA-N; 61 µM (inactive) in the experiment with SN12C; 30.4 µM (inactive) in the experiment on HCT-116. The GI50 in the experiment with SR was 18.4 µM (inactive); in the experiment with SF-295, > 100 µM (inactive); in the experiment on NCI-H226, > 100 µM (inactive); with SF-539, 26.5 µM (inactive); in the experiment with IGROV-1 it was 80.7 µM (inactive); in the experiment with MDA-MB-435, > 100 µM (inactive).

Take `Cc1cc(C2(c3cc(C)c(O)c4ncccc34)OC(=O)c3ccccc32)c2cccnc2c1O`: the GI50 is 0.0178 µM (active) with 786-0; 0.012 µM (active) in the experiment with RPMI-8226; 0.00615 µM (active) with OVCAR-8; 0.0344 µM (active) in the experiment on NCI/ADR-RES; 0.0187 µM (active) in the experiment on NCI-H23; 0.0217 µM (active) in the experiment with HOP-62. Further, the GI50 with SK-OV-3 was 4.52 µM (inactive); in the experiment on TK-10 it was > 10 µM (inactive); in the experiment on K562, 0.0776 µM (active); with RXF 393 it was 0.741 µM (active); in the experiment on CAKI-1, 0.00953 µM (active); with MDA-N, 0.00925 µM (active). Also, the GI50 in the experiment on SN12C was 0.0353 µM (active); with HCT-116 it was 0.00268 µM (active); in the experiment with SF-295, 0.0299 µM (active); in the experiment on NCI-H226 it was 0.01 µM (active); with SF-539, 0.0376 µM (active); in the experiment with IGROV-1 it was 0.0378 µM (active). In the experiment with MDA-MB-435, the GI50 was 0.0682 µM (active).

As for `COC(=O)[C@H](CCSC)NC(=O)N[C@H](C)c1ccccc1`, the GI50 in the experiment on 786-0 is > 100 µM (inactive); with RPMI-8226, > 100 µM (inactive); in the experiment on OVCAR-8, > 100 µM (inactive); in the experiment on NCI/ADR-RES it was 60.7 µM (inactive); with NCI-H23, > 100 µM (inactive); with HOP-62, > 100 µM (inactive). The GI50 in the experiment with SK-OV-3, in the experiment on TK-10, with K562, in the experiment on CAKI-1, in the experiment with MDA-N and with SN12C was > 100 µM (inactive) throughout. The GI50 in the experiment with HCT-116, with SR, in the experiment with SF-295, in the experiment on NCI-H226, in the experiment on SF-539 and in the experiment with IGROV-1 was > 100 µM (inactive) each time. Further, the GI50 in the experiment with MDA-MB-435 was > 100 µM (inactive).

Take `C=C1c2c(n(S(=O)(=O)c3ccccc3)c3ccccc23)[C@@]2(C(=O)OC)CC3C=CC2N1C3`: the GI50 in the experiment with 786-0 was > 100 µM (inactive); in the experiment on RPMI-8226, 41.3 µM (inactive); in the experiment on OVCAR-8, > 100 µM (inactive); in the experiment on NCI/ADR-RES, > 100 µM (inactive); in the experiment on NCI-H23, > 100 µM (inactive); in the experiment on HOP-62 it was > 100 µM (inactive). Besides, the GI50 in the experiment with SK-OV-3, with TK-10, in the experiment with K562, with RXF 393, in the experiment on CAKI-1 and in the experiment with MDA-N was > 100 µM (inactive) throughout. The GI50 with SN12C, in the experiment on HCT-116, in the experiment on SF-295, in the experiment with NCI-H226, with SF-539 and in the experiment with IGROV-1 was > 100 µM (inactive) each time. Besides, the GI50 in the experiment on MDA-MB-435 is > 100 µM (inactive).

In the case of `CC[C@@]1(O)C(=O)OCc2c1cc1n(c2=O)Cc2c-1nc1ccccc1c2/C=N\NC(=O)C(N)Cc1ccc(O)cc1` (stereo not given in full), the GI50 with 786-0 is 0.374 µM (active); in the experiment with RPMI-8226, 0.867 µM (active); in the experiment on OVCAR-8, 0.809 µM (active); in the experiment on NCI/ADR-RES it was 1.33 µM (inactive); in the experiment with NCI-H23, 0.233 µM (active); with HOP-62 it was 0.248 µM (active). For the same molecule, the GI50 in the experiment with SK-OV-3 is 0.869 µM (active); in the experiment with TK-10, > 31.6 µM (inactive); in the experiment on K562 it was 0.531 µM (active); with CAKI-1, 0.315 µM (active); with MDA-N, 3.35 µM (inactive); in the experiment on SN12C it was 0.228 µM (active). The GI50 in the experiment on HCT-116 is 0.804 µM (active); in the experiment with SR it was < 0.0188 µM (active); with SF-295, 0.46 µM (active); with NCI-H226, 0.15 µM (active); with SF-539, 0.0731 µM (active); with IGROV-1 it was 2.52 µM (inactive). For the same molecule, in the experiment on MDA-MB-435, the GI50 was 1.61 µM (inactive).

On to `CC(=O)O[C@@H]1C[C@@]2(C)[C@@H]3CC=C4[C@@H](C[C@H](O)C(=O)C4(C)C)[C@]3(C)C(=O)C[C@]2(C)[C@H]1[C@@](C)(O)C(=O)/C=C/C(C)(C)OC(C)=O`, for which the GI50 in the experiment with 786-0 is 0.352 µM (active); in the experiment with RPMI-8226, 2.02 µM (inactive); in the experiment with OVCAR-8, 1.47 µM (inactive); in the experiment on NCI/ADR-RES, 3.64 µM (inactive); with NCI-H23, 5.26 µM (inactive); in the experiment with HOP-62, 0.731 µM (active). Moreover, the GI50 is < 0.0251 µM (active) in the experiment on SK-OV-3; 0.0787 µM (active) with TK-10; 1.51 µM (inactive) in the experiment with K562; 0.211 µM (active) in the experiment on CAKI-1; 1.37 µM (inactive) in the experiment with MDA-N; 0.957 µM (active) with SN12C. Also, the GI50 is 1.63 µM (inactive) in the experiment on HCT-116; 3.33 µM (inactive) in the experiment on SR; 1.2 µM (inactive) in the experiment on SF-295; 0.338 µM (active) in the experiment with NCI-H226; 1.25 µM (inactive) in the experiment with SF-539; 0.368 µM (active) in the experiment on IGROV-1. Besides, the GI50 in the experiment on MDA-MB-435 is 1.01 µM (active).

For `CCOC(=O)N(CC)c1c(C(F)(F)F)cc(-c2ccccc2)[nH]c1=O`, the GI50 in the experiment on 786-0 was 64.3 µM (inactive); in the experiment on RPMI-8226 it was 14.5 µM (inactive); in the experiment with OVCAR-8, 49.4 µM (inactive); in the experiment with NCI/ADR-RES it was 24.7 µM (inactive); with NCI-H23 it was 52.2 µM (inactive); in the experiment on HOP-62, 73.5 µM (inactive). Further, the GI50 in the experiment with SK-OV-3 is 92 µM (inactive); with TK-10, 97.9 µM (inactive); in the experiment with K562 it was 23.1 µM (inactive); in the experiment with RXF 393 it was 28.2 µM (inactive); with CAKI-1, > 100 µM (inactive); in the experiment on MDA-N it was 23.3 µM (inactive). Besides, the GI50 was 48.6 µM (inactive) with SN12C; 48.5 µM (inactive) in the experiment with HCT-116; 33.4 µM (inactive) in the experiment on SF-295; > 100 µM (inactive) in the experiment with NCI-H226; 47.2 µM (inactive) with IGROV-1; 22.8 µM (inactive) with MDA-MB-435.

For `O=C(Cc1ccccc1)N[C@@H]1COC(=O)[C@@H]2CCCN2C(=O)[C@@H]2CCCN2C1=O` (PhAc-[dS]-Pro-Pro; ester 1-C), the GI50 in the experiment with 786-0, in the experiment with OVCAR-8, in the experiment on NCI/ADR-RES, in the experiment with NCI-H23, in the experiment on HOP-62 and in the experiment on SK-OV-3 was > 100 µM (inactive) throughout. Further, the GI50 in the experiment on TK-10, in the experiment on RXF 393, in the experiment with CAKI-1, in the experiment on MDA-N, with SN12C and in the experiment on HCT-116 was > 100 µM (inactive) each time. For the same molecule, the GI50 in the experiment on SR, in the experiment on SF-295, with SF-539, with IGROV-1 and in the experiment with MDA-MB-435 was > 100 µM (inactive) in each case.

For the origin of these results see ChEMBL document CHEMBL1201862, “PubChem BioAssay data set” (2004).
